The source of these data is patent US20090214435A1, “Recombinant vector expressing MDR1 shRNA and thymidine kinase and use thereof” (Kyungpook National University Industry-Academic Cooperation …, priority 2007, published 2009).

Data set [1] concerns MTKG cells. Put plainly: Clonogenic assay, co-administration of ganciclovir and doxorubicin. It counts as cell-based, human. The conditions noted are these: 10 days. How it is done:
In order to confirm effects of co-administration of an anti-viral drug ganciclovir and an anticancer drug (doxorubicin) on cancer cells, clonogenic assay was carried out. For this purpose, first, MTKG cells were inoculated and cultured in a 100 mm plate containing RPMI 1640 medium, and the cells were then washed three times with a fresh medium. The cells were desorbed from the plate using trypsin-EDTA, and 1×10^3 cells were counted and inoculated into a 6-well plate with addition of ganciclovir (0.1 μCi) and doxorubicin at two different concentrations (10 and 25 nM), followed by incubation. 10 days after incubation, the culture medium was eliminated, and the cells were washed three times with a phosphate buffer and stained with a dye (Diff Quick staining kit). Colony formation was confirmed and colony count was made.

Data set [2] relates to HCT/Mock cells. Put plainly: Clonogenic assay for anticancer drug sensitivity, control cells. It counts as cell-based, human. The conditions noted are these: 10 days. How it is done: (§1) First, MTKG cells and HCT/Mock cells as a control group were inoculated at a cell density of 10^3 cells/well in a 6-well plate containing RPMI 1640 medium, followed by addition of an anticancer drug (doxorubicin or paclitaxel) at different concentrations (0, 1, 5, 10, 50, 100, 500, and 1000 nM) and incubation for 10 days. Thereafter, the culture medium was eliminated, and the cells were washed three times with a phosphate buffer and stained with a dye (Diff Quick staining kit). Colony formation was confirmed and colony count was made.

The subject of data set [3] is MTKG cells. Put plainly: Clonogenic assay for anticancer drug sensitivity, transfected cells. The following applies: Homo sapiens, 240 h, 10 days, read-out: inhibition of cell proliferation. It counts as cell-based. How it is done:
as §1

Data set [4] has as its system MTKG cells. Description: Cell proliferation assay (CellTiter 96 Aqueous One Solution) for ganciclovir sensitivity. It counts as cell-based, human. The following applies: ganciclovir concentration of 0.1 μM or higher, 4 days, FIG. 5B. An excerpt: (§2) Whether increased intracellular accumulation capacity of ganciclovir confirmed in Section 5-1 leads to the enhanced drug sensitivity of MTKG cells to ganciclovir was examined by a cell proliferation assay using CellTiter 96 Aqueous One Solution cell proliferation assay kit (Promega, USA), First, MTKG cells and HCT/Mock cells as a control group were inoculated at a cell density of 10^2 cells/well in a 96-well plate containing RPMI 1640 medium, followed by addition of ganciclovir at different concentrations (0, 0.1, 1, and 10 μM) and incubation for 4 days. Thereafter, 20 μl of detection solution were added to each well. The cells were incubated for 90 min at 37° C. and then measured absorbance at 490 nm using miroplate reader (BioRad, USA). From the experimental results shown in FIG. 5B, it was confirmed that proliferation of HCT-15 and HCT/Mock cells as a control group was not affected by administration of ganciclovir, whereas proliferation of the MTKG cells was affected even at a ganciclovir concentration of 0.1 μM or higher, thus representing increased drug sensitivity of the cell.

The subject of data set [5] is HCT/Mock cells. Described as above. The format is cell-based, human. The conditions noted are these: ganciclovir 0.1, 1, 10 μM, 4 days, FIG. 5B.
Excerpt: as §2

In another data set the test system is HCT-15 cells. Described as above. The format is cell-based, human. The conditions noted are these: ganciclovir 0.1, 1, 10 μM, 4 days, FIG. 5B.
Excerpt: as §2

The subject of data set [6] is MTKG cells. Put plainly: Intracellular accumulation of [H3]-ganciclovir. It counts as cell-based, human. The conditions noted are these: 0.76 μCi/mL [H3]-ganciclovir, 45 min at 37° C., MTKG cells compared to HCT-15 and HCT/Mock cells, FIG. 5A. How it is done: A degree of intracellular ganciclovir accumulation by the TK-GFP gene was investigated as follows. MTKG cells constructed in Section 1-3 of Example 1, and HCT-15 and HCT/Mock cells as a control group were cultured in 6-well plates containing RPMI 1640 medium for 48 hours, to which 0.76 μCi/mL of an isotope-labeled ganciclovir ([H^3]-Ganciclovir, Moravek, USA) was then added, followed by incubation at 37° C. for 45 min. Then, the plate was washed three times with a phosphate buffer and a cell lysis buffer (50 mM Tris-HCl, 150 mM NaCl, and 1% SDS) was added thereto to lyse the cells. For each cell lysate sample, an isotope activity was measured using a beta-counter.

Data set [7] deals with MTKG cells. Description: Intracellular accumulation of [3H]-paclitaxel. The format is cell-based, human. The conditions noted are these: 50 nM [3H]-paclitaxel, 2 hours at 37° C., MTKG cells compared to HCT-15 and HCT/Mock cells, FIG. 4A. How it is done: A degree of intracellular drug accumulation by MDR1 shRNA was investigated. MTKG cells constructed in Section 1-3 of Example 1, and HCT-15 and HCT/Mock cells as a control group were cultured in 6-well plates containing RPMI 1640 medium for 48 hours, to which 50 nM of an isotope-labeled anticancer drug ([^3H]-paclitaxel, Moravek, USA) was then added, followed by incubation at 37° C. for 2 hours. Then, the plate was washed three times with a phosphate buffer, and a cell lysis buffer (50 mM Tris-HCl, 150 mM NaCl, and 1% SDS) was added thereto to lyse the cells. For each cell lysate sample, an isotope activity was measured using a beta-counter.

A further data set concerns P-glycoprotein. Put plainly: Western blot analysis of P-glycoprotein expression in transfected cells. It counts as cell-based, human. The following applies: MTKG cells vs control cell line, FIG. 2B. How it is done: In order to investigate whether intracellular incorporation of MDR1 shRNA inhibits expression of P-glycoprotein which is an expression product of the MDR1 gene, Western blot analysis was carried out for proteins isolated from HCT-15, HCT/Mock, and MTKG cells, respectively. The procedure will be briefly described as follows. HCT-15, HCT/Mock, and MTKG cells were lysed in a cell lysis buffer (containing 50 mM Tris-HCl, 150 mM NaCl, 1% Triton X-100, 1 mM CaCl2, 1 mM MgC2 and protease inhibitor cocktail (Roche, USA), pH 7.4). 30 μg of each protein in the cell lysates was subjected to electrophoresis on polyacrylamide gel containing 7% SDS, and the developed protein gel was transferred to a nitrocellulose membrane. Thereafter, anti-P-glycoprotein antibodies (clone C219, Calbiochem, USA) were diluted in a TBS-T solution (50 mM Tris-HCl, pH 7.6, 150 mM NaCl, 0.1% Tween 20) and were allowed to react and bind with a nitrocellulose membrane for more than 16 hours under refrigeration conditions. After the reaction was complete, the membrane was washed three times with a TBS-T solution, followed by binding reaction with horseradish peroxidase (HRP)-conjugated anti-mouse IgG antibodies (Santa Cruz, USA) for 1 hour at room temperature. […]

A further data set concerns MDR1 mRNA. Put plainly: RT-PCR analysis of MDR1 mRNA expression in transfected cells. The format is cell-based, human. The following applies: MTKG cells vs HCT-15 and HCT/Mock, FIG. 2A. How it is done:
Expression of MDR1 shRNA in MTKG cells of Section 1-3 of Example 1 was examined by RT-PCR For this purpose, total RNA was isolated from HCT-15, HCT/Mock, and MTKG cells, using Trizol reagent (Invitrogen) according to the manufacturer's instructions. Then, cDNA was prepared using 2 μg of the isolated total RNA as a template, and Oligo(dT)15 primer (Bionics, Seoul, Korea) and reverse transcriptase (Promega). PCR amplification for MDR1 mRNA was carried out using the prepared cDNA as a template and a pair of primers (SEQ ID NOS: 12 and 13). PCR was carried out as follows: initial denaturation of template cDNA at 94° C. for 2 min, followed by 30 cycles of denaturation at 94° C. for 30 seconds, annealing at 60° C. for 30 seconds and extension at 72° C. for 1 min.

With `COc1cccc2c1C(=O)c1c(O)c3c(c(O)c1C2=O)C[C@@](O)(C(=O)CO)C[C@@H]3O[C@H]1C[C@H](N)[C@H](O)[C@H](C)O1` [doxorubicin], the cell survival rate with MTKG cells [1] (10 nM doxorubicin alone) is given as 78.8±7.8%; with MTKG cells [1] (25 nM doxorubicin alone), 37.7±3.3%. Moreover, the “inhibition of cell proliferation” value in the data set on HCT/Mock cells [2] (doxorubicin concentration of 500 nM or higher, FIG. 4B) is at least 90%. Further, the inhibition at 0.05 µM in the data set on MTKG cells [3] (doxorubicin concentration of 50 nM, FIG. 4B) is at least 90%.

Consider `Nc1nc(O)c2ncn(COC(CO)CO)c2n1` [ganciclovir], for which the cell survival rate with MTKG cells [1] (0.1 μCi ganciclovir alone) was found to be 61.1±4.1%. The “proliferation of cells on administration of ganciclovir” value is recorded as “affected” in the data set with MTKG cells [4], “not affected” in the data set on HCT/Mock cells [5] and “not affected” with HCT-15 cells. In the data set with MTKG cells [6], the accumulation of ganciclovir result is given as “higher accumulation”.

Consider `CC(=O)O[C@H]1C(=O)[C@@]2(C)[C@H]([C@H](OC(=O)c3ccccc3)[C@]3(O)C[C@H](OC(=O)[C@H](O)[C@@H](NC(=O)c4ccccc4)c4ccccc4)C(C)=C1C3(C)C)[C@]1(OC(C)=O)CO[C@@H]1C[C@@H]2O` [paclitaxel], for which the accumulation of paclitaxel entry in the data set with MTKG cells [7] was “higher accumulation”. Besides, the inhibition at 0.1 µM with HCT/Mock cells [2] (Homo sapiens, 240 h, paclitaxel concentration of 100 nM, FIG. 4C, read-out: inhibition of cell proliferation) was at least 70%. For the same molecule, the inhibition at 0.01 µM with MTKG cells [3] (paclitaxel concentration of 10 nM, FIG. 4C) was at least 70%.

B1: MDR1 shRNA: shRNA with sense and antisense sequences for target SEQ ID NO: 6 (5′-GGCCUAAUGCCGAACACAU-3′), CGAA loop, expressed from U6 promoter (nucleic acid)
sense: GATCCCGGCCTAATGCCGAACACATCGAAATGTGTTCGGCATTAGGCCTTTTTTCCAAC
antisense: TCGAGTTGGAAAAAAGGCCTAATGCCGAACACATTTCGATGTGTTCGGCATTAGGCCGG
modifications: the letters are possibly those of the target site
Consider B1, for which, in the data set on P-glycoprotein, the P-glycoprotein expression result is “inhibition of P-glycoprotein expression”. For the same molecule, in the data set on MDR1 mRNA, the “level of MDR1 mRNA” value is “decreased level of MDR1 mRNA”.
